Reference: PubChem BioAssay (NCI)
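How tested: cells in 96-well plates exposed to compound for 48 hours at five concentrations. The concentration for full growth arrest is given as TGI.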

Tests used:
Assay in all cases: DTP human tumour cell line panel, 48 h
SK-OV-3 ovarian = tested on: SK-OV-3 ovarian
MDA-N = tested on: MDA-N
A549 NSCLC = tested on: A549 NSCLC
786-0 renal = tested on: 786-0 renal
HL-60(TB) leukemia = tested on: HL-60(TB) leukemia
PC-3 prostate = tested on: PC-3 prostate
NCI-H460 lung = tested on: NCI-H460 lung
A498 renal = tested on: A498 renal
NCI-H23 lung = tested on: NCI-H23 lung
NCI-H522 lung = tested on: NCI-H522 lung
SW-620 colon = tested on: SW-620 colon
HCT-15 colon = tested on: HCT-15 colon
MALME-3M melanoma = tested on: MALME-3M melanoma
DU-145 prostate = tested on: DU-145 prostate
SF-295 CNS = tested on: SF-295 CNS
RXF 393 renal = tested on: RXF 393 renal
TK-10 renal = tested on: TK-10 renal
IGROV1 ovarian = tested on: IGROV1 ovarian
M14 melanoma = tested on: M14 melanoma
OVCAR-5 ovarian = tested on: OVCAR-5 ovarian
OVCAR-8 ovarian = tested on: OVCAR-8 ovarian
ACHN renal = tested on: ACHN renal
COLO 205 colon = tested on: COLO 205 colon
HCT-116 colon = tested on: HCT-116 colon
SK-MEL-2 melanoma = tested on: SK-MEL-2 melanoma
EKVX NSCLC = tested on: EKVX NSCLC
SNB-19 CNS = tested on: SNB-19 CNS
UACC-62 melanoma = tested on: UACC-62 melanoma
UO-31 renal = tested on: UO-31 renal
SR leukemia = tested on: SR leukemia
BT-549 breast = tested on: BT-549 breast
NCI-H226 lung = tested on: NCI-H226 lung
SN12C renal = tested on: SN12C renal
MDA-MB-231 breast = tested on: MDA-MB-231 breast
HOP-62 NSCLC = tested on: HOP-62 NSCLC
NCI/ADR-RES ovarian = tested on: NCI/ADR-RES ovarian
OVCAR-3 ovarian = tested on: OVCAR-3 ovarian
U251 CNS = tested on: U251 CNS
CCRF-CEM leukemia = tested on: CCRF-CEM leukemia
OVCAR-4 ovarian = tested on: OVCAR-4 ovarian
K-562 leukemia = tested on: K-562 leukemia
KM12 colon = tested on: KM12 colon
HOP-92 NSCLC = tested on: HOP-92 NSCLC
SK-MEL-5 melanoma = tested on: SK-MEL-5 melanoma
LOX IMVI melanoma = tested on: LOX IMVI melanoma
MOLT-4 leukemia = tested on: MOLT-4 leukemia
SK-MEL-28 melanoma = tested on: SK-MEL-28 melanoma
RPMI-8226 leukemia = tested on: RPMI-8226 leukemia
CAKI-1 renal = tested on: CAKI-1 renal
T-47D breast = tested on: T-47D breast
HCC-2998 colon = tested on: HCC-2998 colon
HS 578T breast = tested on: HS 578T breast
SF-539 CNS = tested on: SF-539 CNS
MCF7 breast = tested on: MCF7 breast
SF-268 CNS = tested on: SF-268 CNS
MDA-MB-435 = tested on: MDA-MB-435
UACC-257 melanoma = tested on: UACC-257 melanoma
HT29 colon = tested on: HT29 colon
SNB-75 CNS = tested on: SNB-75 CNS

Measured: TGI

OC1COC(OCc2ccccc2)C(O)C1O (centres undefined)
not listed: SNB-75 CNS
> 100 µM: all other assays above

NC(=O)CC(N)c1nn[nH]n1 (centres undefined)
not listed: HCC-2998 colon
> 100 µM: all other assays above

CC(=O)NCCCCN(CCCNC(C)=O)C(=O)OCc1ccccc1
not listed: SNB-19 CNS | SR leukemia
> 100 µM: all other assays above

C=C1C2CCC3(CCC4C5(C)CCCC4(C=[N+](CCO)C5)C3C2)C1O (centres undefined)
not listed: NCI-H226 lung | K-562 leukemia | MOLT-4 leukemia
> 100 µM: all other assays above
